Read-outs that look alike come from different tables or passages of the source.
Assays:
Type in all cases: cell-based, Zika virus (ZIKV)
[1] = system: ZIKV mosquito strain MEX 2-81 (2016/Mexico); test: Plaque reduction inhibition assay in Vero E6 cells, ZIKV MEX 2-81
Text: (§1) Vero E6 and LLC-MK2 cells were maintained in Dulbecco's Modified Eagle Medium (DMEM) supplemented with 8% fetal bovine serum (FBS) and penicillin and streptomycin (P/S). C6/36 cells were maintained in Eagle's Minimal Essential Medium (EMEM) supplemented with 5% FBS and P/S. ZIKV strains, including human strains PAN2016 (2016/Panama), R116265 (2016/Mexico), PAN2015 (2015/Panama), FLR (2015/Colombia), R103451 (2015/Honduras), PRVABC59 (2015/Puerto Rico), PLCal_ZV (2013/Thailand), and IbH 30656 (1968/Nigeria), mosquito strain MEX 2-81 (2016/Mexico), and rhesus macaque strain MR 766 (1947/Uganda), were used in the studies. These ZIKV strains were cultured in Vero E6 cells, and viral titers were detected by a standard plaque-forming assay. DENV human strains, including type 1: DENV-1-V1792 (2007/Vietnam), type 2: DENV-2-V594 (2006/Puerto Rico), type 3: DENV-3-V1043 (2006/Puerto Rico), and type 4: DENV-4-PR 06-65-740 (2006/Puerto Rico), were cultured in C6/36 cells, and the viral titers were determined by plaque-forming assay as described above.
(§2) A plaque reduction inhibition assay was carried out to measure the inhibitory activity of Z-medicaments against infections of ZIKV and DENV. […] The compound-virus mixtures were then transferred to Vero E6 cells (10^5/well) and incubated at 37° C. for 1 h. […] The cells were washed thoroughly with PBS, and overlaid with DMEM containing 1% carboxymethyl cellulose and 2% FBS, followed by in vitro culture at 37° C. for 4-5 days and then staining with 0.5% crystal violet.
(§3) After removal of the unbound compounds by centrifugation after addition of 3% PEG-6000, ZIKV was incubated with Vero E6 cells at 37° C. for 1 h. The cells were then washed with PBS, overlaid with DMEM containing 1% carboxymethyl cellulose and 2% FBS, and cultured at 37° C. for 4-5 days, followed by staining with 0.5% crystal violet.

ZIKV (PAN2016) = test: Time-of-addition experiment, ZIKV PAN2016 in Vero E6 cells; conditions: for Inhibition of ZIKV infection, pretreatment of cells: cells incubated with compound 37° C. 1 h before ZIKV; for Inhibition of ZIKV infection, penetration (membrane fusion): cells with ZIKV at 4° C. 1 h; for Inhibition of ZIKV infection, penetration (membrane fusion) / Inhibition of ZIKV infection, post-entry stage: then compound 37° C. 1 h; for Inhibition of ZIKV infection, post-entry stage: cells with ZIKV at 37° C. 1 h; for Inhibition of ZIKV infection, attachment: ZIKV and compound at 4° C. 1 h; for Inhibition of ZIKV infection, pretreatment of ZIKV: virus incubated with compound 37° C. 1 h before cells; for inhibition at 7.5 µM: Zika virus
Procedure: FIG. 2A-K depicts a time-of-addition experiment to test the ability of the disclosed compounds to block ZIKV infection at different steps of the viral life cycle. […] FIG. 2B: Pretreatment of cells: cells were pre-incubated with one of the compounds at 37° C. for 1 h, and the unbound compounds were then removed, followed by addition of ZIKV and incubation of cells at 37° C. for 1 h. After removal of the unbound ZIKV, the cells were cultured and plaques and inhibition rate determined as in FIG. 2A. FIG. 2C: Blockage of ZIKV attachment: cells were incubated with ZIKV at 4° C. for 1 h (to allow ZIKV attachment but not fusion between ZIKV and cell membranes) in the presence of one of the compounds. After removal of the unbound ZIKV and compounds, the cells were cultured and plaques and inhibition rate determined. […] FIG. 2E: Blockage of ZIKV penetration (membrane fusion): cells were incubated with ZIKV at 4° C. for 1 h to allow ZIKV attachment. After removal of the unbound ZIKV, the cells were incubated with one of the compounds at 37° C. for 1 h to allow fusion of virus-cell membranes. After further removal of the unbound compounds, the cells were cultured and plaques and inhibition rate determined. FIG. 2F: Inhibition of post-entry stage: cells were incubated with ZIKV at 37° C. for 1 h (to allow ZIKV entry into the target cells). […] The percent inhibition was calculated based on the numbers of plaques in the presence or absence of serially diluted compounds. The data are expressed as mean±s.e.m. (n=2). The experiments were repeated three times with similar results.
Time-of-addition experiments were performed in Vero E6 cells, and six specific steps are shown as follows. 1) Step 1: Pretreatment of virus. […] After removal of the unbound compounds, ZIKV was incubated with cells at 37° C. for 1 h, followed by culturing cells at 37° C. for 4-5 days, and enumerating plaques. 2) Step 2: Pretreatment of cells. […] The unbound ZIKV was removed, and the cells were cultured and plaques enumerated as in Step 1. 3) Step 3: Attachment. […] After removal of the unbound ZIKV and compounds, the cells were cultured and plaques enumerated as in Step 1. 4) Step 4: Co-treatment. […] After removal of the unbound viruses and compounds, the cells were cultured and plaques enumerated as in Step 1. 5) Step 5: Fusion. Cells were incubated with ZIKV at 4° C. for 1 h for ZIKV attachment. […] The unbound compounds were removed, and the cells were cultured and plaques enumerated as in Step 1. 6) Step 6: Post-entry. Cells were incubated with ZIKV at 37° C. for 1 h for ZIKV entry. […] The unbound compounds were then removed, and the cells were cultured and enumerated for plaques as in Step 1. The data are expressed as mean % inhibition±s.e.m. (n=2). The percent inhibition was calculated based on the numbers of plaques in the presence or absence of the compounds. The experiments were repeated three times with similar results.
Time-of-addition experiments. were performed to identify mechanisms of the Z-medicaments against ZIKV infection. […] Specifically, the following six stages of ZIKV infection were tested: (a) Pretreatment of ZIKV (PAN2016, ˜2.5×10^3 PFU) with the Z-medicaments at 37° C. for 1 h before incubation with cells; (b) Pretreatment of cells with the Z-medicaments at 37° C. for 1 h before incubation with ZIKV (PAN2016, ˜100 PFU); (c) Co-treatment of cells, ZIKV (PAN2016, ˜300 PFU) and the Z-medicaments at 4° C. for 1 h; (d) Co-treatment of cells, ZIKV (PAN2016, ˜100 PFU) and the Z-medicaments at 37° C. for 1 h; (e) Pre-incubation of cells with ZIKV (PAN2016, ˜300 PFU) at 4° C. for 1 h and then incubation with the Z-medicaments at 37° C. for 1 h; and (f) Pre-incubation of ZIKV (PAN2016, ˜100 PFU) and cells at 37° C. for 1 h, followed by incubation with the Z-medicaments at 37° C. for 1 h. […]

[2] = system: ZIKV human strain PAN2015 (2015/Panama); test: microbe, parasite or virus in culture; conditions: Vero E6 cells
Text: as §1, §2, §3

[3] = gossypol 15 μM, curcumin 30 μM, digitonin 7.5 μM, conessine 30 μM, ST087010 15 μM
[4] = co-treatment of cells, gossypol 15 μM, curcumin 30 μM, digitonin 7.5 μM, conessine 30 μM, ST087010 15 μM

| Compound | Inhibition of ZIKV infection, pretreatment of cells (ZIKV (PAN2016); [3]) | Inhibition of ZIKV infection, penetration (membrane fusion) (ZIKV (PAN2016); [3]) | Inhibition of ZIKV infection, post-entry stage (ZIKV (PAN2016); [3]) | Inhibition of ZIKV infection, attachment (ZIKV (PAN2016); [4]) | Inhibition of ZIKV infection, pretreatment of ZIKV (ZIKV (PAN2016); [3]) | other results |
| --- | --- | --- | --- | --- | --- | --- |
| Cc1cc2c(C(C)C)c(O)c(O)c(/C=N/n3c(=O)[nH][nH]c3=O)c2c(O)c1-c1c(C)cc2c(C(C)C)c(O)c(O)c(/C=N/n3c(=O)[nH][nH]c3=O)c2c1O [ST087010] | no or little | no or little | < 20% | < 40% | almost completely inhibited | IC50 ([1]; Vero E6 cells, Table 7, gossypol derivatives, read-out: ZIKV strains IC50, MEX 2-81): 2920 ± 250 nM; Inhibition of ZIKV infection, co-treatment of ZIKV and cells (ZIKV (PAN2016); co-treatment of cells, ZIKV and compound at 37° C. 1 h, gossypol 15 μM, curcumin 30 μM, digitonin 7.5 μM, conessine 30 μM, ST087010 15 μM): no or little; IC50 ([2]; Table 7, gossypol derivatives, read-out: ZIKV strains IC50, PAN2015): 3500 ± 60 nM |
| Cc1cc2c(C(C)C)c(O)c(O)c(C=O)c2c(O)c1-c1c(C)cc2c(C(C)C)c(O)c(O)c(C=O)c2c1O [Gossypol, gossypol] |  |  |  |  |  | IC50 ([1]; Zika virus, Vero C1008, read-out: IC50 against ZIKV strain MEX 2-81): 2790 ± 10 nM; IC50 ([1]; Zika virus, Vero C1008, read-out: ZIKV strains IC50, MEX 2-81): 2930 ± 10 nM |
| C[C@@H]1CC[C@@]2(OC1)O[C@H]1[C@@H](O)[C@H]3[C@@H]4CC[C@H]5C[C@@H](O[C@@H]6O[C@H](CO)[C@H](O[C@@H]7O[C@H](CO)[C@@H](O)[C@H](O[C@@H]8OC[C@@H](O)[C@H](O)[C@H]8O)[C@H]7O[C@@H]7O[C@H](CO)[C@H](O)[C@H](O[C@@H]8O[C@H](CO)[C@@H](O)[C@H](O)[C@H]8O)[C@H]7O)[C@H](O)[C@H]6O)[C@H](O)C[C@]5(C)[C@H]4CC[C@]3(C)[C@H]1[C@@H]2C [Digitonin, digitonin] |  |  |  |  | no effects | inhibition at 7.5 µM (ZIKV (PAN2016); Vero C1008, 1 h, read-out: Inhibition of ZIKV infection, penetration (membrane fusion)): 49 to 74%; inhibition at 7.5 µM (ZIKV (PAN2016); Vero C1008, 1 h, read-out: Inhibition of ZIKV infection, post-entry stage): 49 to 74%; inhibition at 7.5 µM (ZIKV (PAN2016); Vero C1008, read-out: Inhibition of ZIKV infection, pretreatment of cells): ≥ 94%; IC50 ([2]; Zika virus, Vero C1008, Table 1, read-out: IC50 against ZIKV strain PAN2015): 5000 ± 10 nM |
| COc1cc(/C=C/C(=O)CC(=O)/C=C/c2ccc(O)c(OC)c2)ccc1O [Curcumin, curcumin] | low to no impact | low to no impact | low to no impact |  |  |  |
| C[C@H]1[C@H]2CC[C@H]3[C@@H]4CC=C5C[C@@H](N(C)C)CC[C@]5(C)[C@H]4CC[C@]23CN1C [Conessine, conessine] |  |  |  | very low, to no, effects | very low, to no, effects |  |

From patent US20220313651A1, “INHIBITORS OF ZIKA VIRUS INFECTION” (priority 2019, published 2022)
